The target of data set [1] is CYP2D6 (Homo sapiens, UniProt P10635). As to the kind of experiment: CYP2D6 inhibition in vitro. It is filed as in vitro ADME. An excerpt: Concomitant use of orismilast • with other drugs mainly metabolized by the cytochrome CYP2D6 has not been studied clinically.
The test system of data set [2] is adults with moderate-to-severe plaque-type psoriasis. Description: Phase 2b dose-ranging study in psoriasis (Example 3): efficacy (PASI), incl. body-weight sub-group and post-hoc analysis. The format is in vivo, human. An excerpt: • Percentage change in Psoriasis […] and Severity Index (PASI) score from Baseline at Week 16. Key Secondary Endpoints • Patients achieving 75% reduction in PASI (PASI75) response at Week 16. • Patients achieving a score of Clear (0) or Almost Clear (1) and an at least 2-point improvement in Investigator Global Assessment (IGA) at Week 16. […] Safety Endpoints: • The occurrence, severity, and seriousness of treatment-emergent adverse events (TEAEs) reported over the 16-week Treatment Period and the 4-week Follow-up Period. • Changes from Baseline in physical examination; vital sign measurements (body temperature, respiration rate, heart rate, and systolic and diastolic blood pressure measurements); and body weight over the 16-week Treatment Period and the 4-week Follow-up Period. • Changes from Baseline in electrocardiogram (ECG) findings over the 16-week Treatment Period and the 4-week Follow-up Period. • Changes from Baseline in safety laboratory values (haematology, serum chemistry, and urinalysis) over the 16-week Treatment Period and the 4-week Follow-up Period. • Hospital Anxiety and Depression Scale at each visit except Week 2. • Columbia-Suicide Severity Rating Scale (C-SSRS) at each visit except Weeks 1 and 2. Exploratory Endpoints: • Change from Baseline in Physician's Global Assessment of Fingernails (PGA-F) at Week 16. • Change in Scalp-Specific Investigator Global Assessment (ss-IGA) from Baseline at Week 16 in the subgroup of patients with Baseline score of at least 2 (mild scalp psoriasis). • Change from Baseline of scalp itch Numeric Rating Scale (NRS) at Week 16 in the subgroup of patients with Baseline score of at least 4 on the 11-point NRS. • Change from Baseline in joint pain NRS at Week 16 in patients with psoriatic arthritis (PsA) and a Baseline joint pain score of at least 4. • Change in cardiovascular risk factors at Week 16. The following parameters will be collected: weight, body mass index, waist and hip circumferences, blood pressure, fasting serum glucose, triglycerides, cholesterol (total and high-density lipoprotein/low-density lipoprotein fractions), and C-reactive protein. • Change from Baseline in skin biomarkers at Week 16 collected via tape stripping and analysed using proteomic methods. • Plasma levels of the drug and its metabolites at scheduled visits. Study Design
A multicentre, randomized, double-blind, placebo-controlled, parallel group, Phase 2b dose-ranging study designed to assess the efficacy and safety of modified-release orismilast compared with placebo in adult patients with moderate-to-severe plaque-type psoriasis. Efficacy and safety outcomes will be evaluated to select an appropriate orismilast dose for subsequent Phase 3 studies.
After a Screening visit up to 28 days before Baseline, 202 patients were assigned randomly in a 1:1:1:1 ratio to receive 1 of the 3 orismilast doses (20 mg, 30 mg, or 40 mg) or placebo twice daily (BID) for 16 weeks, with a 4-week Follow-up visit. Administration will begin at Baseline with a dose titration period. The maximum duration of study participation was approximately 24 weeks.
At Baseline and each visit from Week 4 onwards, PASI, BSA, IGA, and PSS were assessed. Quality of life was assessed by administration of DLQI at Baseline and at Weeks 16 and 20 visits. Additional efficacy parameters include: an ss-IGA, a Physician Global Assessment of fingernail psoriasis (PGA-F), and patient's joint pain NRS for those with a diagnosis of PsA. These parameters were assessed at Baseline and Weeks 16 and 20. Safety evaluations include adverse events (Aes), laboratory and vital sign assessments, physical examinations, as well as mood change evaluation by patient (Hospital Anxiety and Depression Scale) and suicidal ideation evaluation by Investigator (C-SSRS). A panel of cardiovascular risk factors were assessed at Baseline and Week 16. […]

Where [3] appears, read: post-hoc group 20 mg BID (<100 kg)/30 mg BID (≥100 kg), NRI.

CYP2D6, sequence (P10635 whole entry): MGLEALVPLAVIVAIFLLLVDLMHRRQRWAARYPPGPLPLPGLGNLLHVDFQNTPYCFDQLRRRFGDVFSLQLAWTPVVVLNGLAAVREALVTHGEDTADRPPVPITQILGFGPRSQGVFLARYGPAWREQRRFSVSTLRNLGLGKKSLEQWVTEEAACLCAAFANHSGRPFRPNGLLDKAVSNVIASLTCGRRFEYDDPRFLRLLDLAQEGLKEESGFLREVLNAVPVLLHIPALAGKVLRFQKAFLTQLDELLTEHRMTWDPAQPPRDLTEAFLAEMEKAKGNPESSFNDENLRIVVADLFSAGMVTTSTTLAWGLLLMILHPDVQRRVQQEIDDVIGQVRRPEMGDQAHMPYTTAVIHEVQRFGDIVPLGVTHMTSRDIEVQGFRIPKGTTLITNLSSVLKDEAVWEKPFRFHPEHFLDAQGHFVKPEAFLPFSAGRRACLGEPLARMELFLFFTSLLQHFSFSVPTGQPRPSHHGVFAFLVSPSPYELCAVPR

In the case of `O=C(Cc1c(Cl)c[n+]([O-])cc1Cl)c1ccc(OC(F)F)c2c1OC1(CCS(=O)(=O)CC1)O2` [orismilast, 2-(3,5-dichloro-1-oxidopyridin-1-ium-4-yl)-1-[7-(difluoromethoxy)-1′,1′-dioxospiro[1,3-benzodioxole-2,4′-thiane]-4-yl]ethanone], the “inhibition of CYP2D6” value in data set [1] is on record as “competitive direct inhibitor”. For the same compound, the entries for the “mean percentage change in PASI from baseline to Week 16” value in data set [2] (20 mg BID), in data set [2] (30 mg BID) and in data set [2] (40 mg BID) were −52.6%, −61.2% and −63.7%, respectively. Besides, the PASI-75 responders in data set [2] (20 mg BID, NRI) was found to be 35%; in data set [2] (30 mg BID, NRI) it was 44%; in data set [2] (setting [3]), 46%. In addition, the PASI-90 responders in data set [2] (20 mg BID, NRI) amounted to 23%; in data set [2] (30 mg BID, NRI) it was 20%; in data set [2] (setting [3]), 29%. Moreover, the PASI-100 responders in data set [2] (20 mg BID, NRI) is given as 8%; in data set [2] (30 mg BID, NRI) it was 8%; in data set [2] (setting [3]), 10%. In addition, in data set [2] (NRI), the “efficacy of post-hoc group 20 mg BID (<100 kg)/30 mg BID (≥100 kg) relative to all pre-specified treatment arms” value is “improved”. Also, in data set [2] (PASI50, PASI75, PASI90, weeks 4, 8, 12 and 16), the “efficacy of the 20 mg BID dose vs the 30 mg BID dose in patients weighing ≥100 kg” value is “less efficacious”. In addition, in data set [2] (PASI75 and in particular PASI90), the “efficacy of the 20 mg BID dose vs the 30 mg BID dose in patients weighing <100 kg at baseline” value is “(similar or) more efficacious”. Besides, the “treatment effect versus placebo, percentage change in PASI from baseline to Week 16 (primary endpoint)” value in data set [2] (all doses (20, 30, 40 mg BID)) is “statistically significant treatment effect”. In addition, the “efficacy (PASI50, PASI75, PASI90) of the 30 mg BID dose in patients weighing ≥100 kg compared to <100 kg at baseline” value in data set [2] (weeks 4, 8, 12 and 16) is “consistently higher”.

For the origin of these results see patent publication US12409172B2, “Dosage regimen” (UNION therapeutics A/S, priority 2023, dated 2025).
